A word on the inhibition: it is the drop in the measured response relative to a control, in per cent.

The structures appear in SMILES notation.

For this test, the target named is T1, human Nav1.7 channels (Homo sapiens, UniProt Q15858).
T1 construct: host or cells: HEK293
T1 sequence (Q15858 whole entry): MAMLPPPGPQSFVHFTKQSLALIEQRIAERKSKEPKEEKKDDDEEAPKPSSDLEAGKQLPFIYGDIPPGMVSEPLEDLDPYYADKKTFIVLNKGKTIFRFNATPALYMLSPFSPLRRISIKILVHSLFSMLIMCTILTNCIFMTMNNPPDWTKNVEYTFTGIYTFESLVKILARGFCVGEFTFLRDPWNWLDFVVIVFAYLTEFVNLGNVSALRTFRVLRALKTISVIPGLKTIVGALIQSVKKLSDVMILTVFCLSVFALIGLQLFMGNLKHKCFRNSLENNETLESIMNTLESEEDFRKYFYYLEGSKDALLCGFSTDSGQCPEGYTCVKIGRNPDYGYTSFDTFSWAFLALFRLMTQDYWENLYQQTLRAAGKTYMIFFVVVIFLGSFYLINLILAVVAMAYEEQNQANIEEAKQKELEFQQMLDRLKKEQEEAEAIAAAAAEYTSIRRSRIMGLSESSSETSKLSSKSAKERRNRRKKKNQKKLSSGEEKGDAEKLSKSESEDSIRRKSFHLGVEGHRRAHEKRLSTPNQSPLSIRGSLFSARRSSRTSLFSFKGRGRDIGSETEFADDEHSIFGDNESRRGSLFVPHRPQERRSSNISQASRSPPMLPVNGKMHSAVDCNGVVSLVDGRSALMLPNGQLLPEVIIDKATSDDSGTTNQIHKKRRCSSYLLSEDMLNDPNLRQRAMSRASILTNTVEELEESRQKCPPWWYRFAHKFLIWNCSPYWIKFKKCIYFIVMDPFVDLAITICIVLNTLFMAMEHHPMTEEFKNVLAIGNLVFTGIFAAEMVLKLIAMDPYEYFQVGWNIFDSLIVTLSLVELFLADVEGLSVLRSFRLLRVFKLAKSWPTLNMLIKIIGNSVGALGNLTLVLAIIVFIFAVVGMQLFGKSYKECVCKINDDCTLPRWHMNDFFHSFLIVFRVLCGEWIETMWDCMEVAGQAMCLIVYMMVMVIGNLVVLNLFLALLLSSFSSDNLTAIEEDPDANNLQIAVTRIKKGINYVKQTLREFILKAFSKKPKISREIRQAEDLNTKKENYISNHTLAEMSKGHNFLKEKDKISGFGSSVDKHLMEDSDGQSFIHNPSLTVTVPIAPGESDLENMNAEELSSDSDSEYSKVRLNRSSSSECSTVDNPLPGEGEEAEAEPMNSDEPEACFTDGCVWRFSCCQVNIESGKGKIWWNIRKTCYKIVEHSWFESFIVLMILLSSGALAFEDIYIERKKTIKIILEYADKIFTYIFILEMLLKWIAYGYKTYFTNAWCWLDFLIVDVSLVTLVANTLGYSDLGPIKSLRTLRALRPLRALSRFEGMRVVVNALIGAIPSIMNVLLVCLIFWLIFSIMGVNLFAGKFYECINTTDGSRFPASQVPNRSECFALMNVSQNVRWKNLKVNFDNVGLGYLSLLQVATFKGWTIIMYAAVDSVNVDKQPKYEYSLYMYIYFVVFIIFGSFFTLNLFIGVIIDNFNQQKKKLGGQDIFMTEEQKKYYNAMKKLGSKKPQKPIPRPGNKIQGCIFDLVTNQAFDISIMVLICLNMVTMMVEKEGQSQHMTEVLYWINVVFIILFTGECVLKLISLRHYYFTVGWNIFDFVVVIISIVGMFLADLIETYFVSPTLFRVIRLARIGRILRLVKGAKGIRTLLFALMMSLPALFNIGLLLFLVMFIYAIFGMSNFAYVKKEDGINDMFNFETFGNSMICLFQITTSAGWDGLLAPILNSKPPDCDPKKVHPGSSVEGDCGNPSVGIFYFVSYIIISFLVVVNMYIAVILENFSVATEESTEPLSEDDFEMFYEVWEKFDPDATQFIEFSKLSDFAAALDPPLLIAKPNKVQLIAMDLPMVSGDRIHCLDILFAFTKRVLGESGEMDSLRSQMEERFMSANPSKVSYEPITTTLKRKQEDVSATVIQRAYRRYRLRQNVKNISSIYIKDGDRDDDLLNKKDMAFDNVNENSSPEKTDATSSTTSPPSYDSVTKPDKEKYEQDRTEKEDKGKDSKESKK
In words: hNav1.7 channel assay, whole cell patch clamp, two-pulse protocol. Type of test: cell-based. The note with it: TP2 (inactivated phase inhibition), HEK293 cells stably expressing human Nav1.7, read-out: Inhibition activity: percent inhibition on the inactivated state of hNav1.7. From the text: Whole cell patch clamp technique was used to investigate the inhibitory effects of the compound of Examples on human Nav1.7 channels, stably expressed in HEK293 cells. Human Nav1.7 recombinant cell line (CYL3011-precisION) was purchased from Eurofins.
Two-pulse protocol was used every 10 seconds to assess the state-dependent inhibition by Examples. From the holding potential of −90 mV, pre-pulse (200 ms at −120 mV) was followed by test pulse1 ([…]), then test pulse2 (TP2: 20 ms at 0 mV) was evoked after inter-pulse (20 ms at −100 mV).
Peak current amplitudes were measured for test pulses TP1 (resting phase inhibition) and TP2 (inactivated phase inhibition). The following solutions were used for screening assay: External (mM): 145 NaCl, 1 MgCl2, 1.8 CaCl2, 10 Hepes, 5 Glucose, pH 7.4, 300 mOsm; Internal (mM): 120 CsF, 10 NaCl, 10 EGTA, 10 HEPES, pH 7.2, 290 mOsm.
The inhibition on the inactivated state of hNav1.7 was calculated as: % inhibition (inactivation state)=(1−(ITP2, TA/ITP2, Control)×100%, where ITP2 (the inward peak Na+ currents), Control and ITP2, TA were elicited by the TP2 in control (vehicle only) and in the presence of a test article (TA) indicating Examples, respectively.
On the technique in general: In patch-clamp work, channel activity is measured electrically.
As to `COc1cc(-c2cccc(C(=O)NCc3cccc[n+]3[O-])c2)cc(C(F)(F)F)c1` [Example 45, 3-[3-methoxy-5-(trifluoromethyl)phenyl]-N-[(1-oxidopyridin-1-ium-2-yl)methyl]benzamide], the inhibition at 10 µM was in the range of 10 to 40%.
`COc1cc(F)c(F)cc1-c1cccc(C(=O)NCc2cccc[n+]2[O-])c1` [Example 47, 3-(4,5-difluoro-2-methoxy-phenyl)-N-[(1-oxidopyridin-1-ium-2-yl)methyl]benzamide]: the inhibition at 10 µM lay within 10 to 40%.
Take `COc1cc(-c2cccc(C(=O)NCc3cccc[n+]3[O-])c2)ccc1Cl` [Example 48, 3-(4-chloro-3-methoxy-phenyl)-N-[(1-oxidopyridin-1-ium-2-yl)methyl]benzamide]: the inhibition at 10 µM fell in the range of 40 to 70%.
Consider `COc1cc(-c2cccc(C(=O)NCc3cccc[n+]3[O-])c2)ccc1C(F)(F)F` [Example 49, 3-[3-methoxy-4-(trifluoromethyl)phenyl]-N-[(1-oxidopyridin-1-ium-2-yl)methyl]benzamide], for which the inhibition at 10 µM lay in the range of 70 to 100%.
Regarding `COc1ccc(-c2cccc(C(=O)NCc3cccc[n+]3[O-])c2)c(C(F)(F)F)c1` [Example 50, 3-[4-methoxy-2-(trifluoromethyl)phenyl]-N-[(1-oxidopyridin-1-ium-2-yl)methyl]benzamide], the inhibition at 10 µM is 40 to 70%.
On to `O=C(NCc1cccc[n+]1[O-])c1cc(-c2cccc(Cl)c2)ccc1F` [Example 52, 5-(3-chlorophenyl)-2-fluoro-N-[(1-oxidopyridin-1-ium-2-yl)methyl]benzamide], for which the inhibition at 10 µM is 70 to 100%.
The same measure for `COc1cc(Cl)ccc1-c1ccc(F)c(C(=O)NCc2cccc[n+]2[O-])c1` [Example 53, 5-(4-chloro-2-methoxy-phenyl)-2-fluoro-N-[(1-oxidopyridin-1-ium-2-yl)methyl]benzamide]: 70 to 100%.
As to `O=C(NCc1cccc[n+]1[O-])c1cc(-c2ccc(F)c(F)c2)ccc1F` [Example 54, 5-(3,4-difluorophenyl)-2-fluoro-N-[(1-oxidopyridin-1-ium-2-yl)methyl]benzamide], the inhibition at 10 µM was 70 to 100%.
With `O=C(NCc1cccc[n+]1[O-])c1cc(-c2ccc(Cl)cc2C(F)(F)F)ccc1F` [Example 55, 5-[4-chloro-2-(trifluoromethyl)phenyl]-2-fluoro-N-[(1-oxidopyridin-1-ium-2-yl)methyl]benzamide], the inhibition at 10 µM lay within 40 to 70%.
The result for `COc1cc(OC(F)(F)F)ccc1-c1ccc(F)c(C(=O)NCc2cccc[n+]2[O-])c1` [Example 56, 2-fluoro-5-[2-methoxy-4-(trifluoromethoxy)phenyl]-N-[(1-oxidopyridin-1-ium-2-yl)methyl]benzamide] reads 70 to 100%; that for `O=C(NCc1cccc[n+]1[O-])c1cc(-c2ccc(C(F)(F)F)cc2)ccc1F` [Example 57, 2-fluoro-N-[(1-oxidopyridin-1-ium-2-yl)methyl]-5-[4-(trifluoromethyl)phenyl]benzamide], 70 to 100%; that for `O=C(NCc1cccc[n+]1[O-])c1cc(-c2ccc(OC(F)(F)F)cc2)ccc1F` [Example 58, 2-fluoro-N-[(1-oxidopyridin-1-ium-2-yl)methyl]-5-[4-(trifluoromethoxy)phenyl]benzamide], 70 to 100%.
As to `COc1cc(-c2ccc(F)c(C(=O)NCc3cccc[n+]3[O-])c2)ccc1C(F)(F)F` [Example 59, 2-fluoro-5-[3-methoxy-4-(trifluoromethyl)phenyl]-N-[(1-oxidopyridin-1-ium-2-yl)methyl]benzamide], the inhibition at 10 µM is 70 to 100%.
On to `O=C(NCc1cccc[n+]1[O-])c1cc(-c2ccc(C(F)(F)F)c(F)c2)ccc1F` [Example 60, 2-fluoro-5-[3-fluoro-4-(trifluoromethyl)phenyl]-N-[(1-oxidopyridin-1-ium-2-yl)methyl]benzamide], for which the inhibition at 10 µM is 70 to 100%.
Turning to `O=C(NCc1ccc(F)c[n+]1[O-])c1cccc(-c2ccc(Cl)cc2)c1` [Example 61, 3-(4-chlorophenyl)-N-[(5-fluoro-1-oxido-pyridin-1-ium-2-yl)methyl]benzamide], the inhibition at 10 µM lay in the range of 70 to 100%.
